Values quoted from earlier work in patent publication US20250025455A1, “CONTROLLED-RELEASE NICOTINE CHEWING GUM” (Altria Client Services LLC, priority 2023, published 2025).

Settings: free base (non-protonated) nicotine

With `CN1CCCC1c1cccnc1` (stereo not shown) [Free-base nicotine, 3-(1-methyl-2-pyrrolidinyl) pyridine] as the molecule, how does the pKa value read?
The pKa value was “about 8”.
